Common to all, as to assay: BRET assay using TRUPATH biosensors, Gi activation of ADGRF1
Holding throughout (format): cell-based
On the technique in general: BRET reads energy transfer from a luciferase to a nearby fluorophore.

Assay [1] concerns the target T1, ADGRF1 (Homo sapiens, UniProt Q5T601).
T1 construct: Flag (N); expressed in transfected cells; host or cells: HEK293F
T1 sequence (Q5T601 20-910): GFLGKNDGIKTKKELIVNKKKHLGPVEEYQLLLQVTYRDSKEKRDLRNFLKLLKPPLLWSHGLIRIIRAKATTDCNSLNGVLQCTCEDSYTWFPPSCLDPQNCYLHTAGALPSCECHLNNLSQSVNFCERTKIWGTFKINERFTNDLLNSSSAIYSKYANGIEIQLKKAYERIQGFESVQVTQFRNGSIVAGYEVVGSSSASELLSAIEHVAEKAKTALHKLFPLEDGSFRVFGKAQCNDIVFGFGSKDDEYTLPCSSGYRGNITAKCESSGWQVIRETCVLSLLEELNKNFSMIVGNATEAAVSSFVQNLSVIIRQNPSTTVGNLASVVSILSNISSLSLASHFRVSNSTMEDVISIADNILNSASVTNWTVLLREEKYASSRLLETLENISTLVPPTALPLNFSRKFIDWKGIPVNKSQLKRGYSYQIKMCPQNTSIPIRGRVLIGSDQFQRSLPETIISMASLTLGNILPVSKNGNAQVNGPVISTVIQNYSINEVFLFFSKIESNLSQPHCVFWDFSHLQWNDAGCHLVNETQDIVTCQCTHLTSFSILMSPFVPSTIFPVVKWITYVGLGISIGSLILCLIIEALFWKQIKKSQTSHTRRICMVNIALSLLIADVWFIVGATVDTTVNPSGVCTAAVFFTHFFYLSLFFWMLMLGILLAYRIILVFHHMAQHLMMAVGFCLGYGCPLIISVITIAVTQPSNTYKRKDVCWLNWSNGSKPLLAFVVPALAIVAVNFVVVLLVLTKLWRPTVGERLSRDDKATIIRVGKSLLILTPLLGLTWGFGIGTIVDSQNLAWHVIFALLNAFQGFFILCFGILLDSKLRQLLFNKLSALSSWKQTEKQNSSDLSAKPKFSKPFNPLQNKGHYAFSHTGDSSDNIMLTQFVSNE
The procedure, abridged:
(§1)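 HEK293F cells transiently co-transfected with wild-type or mutant receptor, Gα-RLuc8 (GαsS for Gs, Gαi1 for Gi), Gβ3 and Gγ9-GFP2 at 2:1:1:1. After 30 min at 37 °C and coelenterazine 400a, cells stimulated with synthetic stalk peptide. BRET = GFP2/RLuc8 emission, last of five readings.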

Assay [2] deals with T2, ADGRF1 (Homo sapiens, UniProt Q5T601, L752A).
T2 construct: Flag (N); expressed in transfected cells; host or cells: HEK293F
T2 sequence (Q5T601 20-910 L752A): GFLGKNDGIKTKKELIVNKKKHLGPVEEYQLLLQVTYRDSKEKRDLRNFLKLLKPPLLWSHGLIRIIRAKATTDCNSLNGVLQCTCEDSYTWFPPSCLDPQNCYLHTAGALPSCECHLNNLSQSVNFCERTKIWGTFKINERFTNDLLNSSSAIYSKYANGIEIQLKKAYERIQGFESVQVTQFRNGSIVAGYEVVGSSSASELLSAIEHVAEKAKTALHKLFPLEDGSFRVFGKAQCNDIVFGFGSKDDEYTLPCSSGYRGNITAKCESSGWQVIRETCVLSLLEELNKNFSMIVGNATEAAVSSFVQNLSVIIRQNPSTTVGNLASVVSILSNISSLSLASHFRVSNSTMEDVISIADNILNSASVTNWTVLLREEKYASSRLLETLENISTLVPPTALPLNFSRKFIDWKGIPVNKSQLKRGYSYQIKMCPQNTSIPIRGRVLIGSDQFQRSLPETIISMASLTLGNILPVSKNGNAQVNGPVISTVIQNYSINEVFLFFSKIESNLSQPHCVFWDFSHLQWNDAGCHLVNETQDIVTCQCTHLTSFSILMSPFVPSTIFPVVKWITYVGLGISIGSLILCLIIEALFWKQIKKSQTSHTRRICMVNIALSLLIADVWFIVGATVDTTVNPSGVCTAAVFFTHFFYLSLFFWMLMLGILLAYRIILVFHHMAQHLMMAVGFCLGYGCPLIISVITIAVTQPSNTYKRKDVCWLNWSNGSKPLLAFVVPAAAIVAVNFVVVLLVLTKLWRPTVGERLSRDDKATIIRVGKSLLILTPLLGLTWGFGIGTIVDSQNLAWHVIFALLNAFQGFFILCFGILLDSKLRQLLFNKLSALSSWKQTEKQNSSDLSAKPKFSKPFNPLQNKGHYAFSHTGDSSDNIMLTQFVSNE
As to conditions: ADGRF1 L752^5.44bA. The procedure, abridged: as §1

Assay [3] deals with T3, ADGRF1 (Homo sapiens, UniProt Q5T601, T810A).
T3 construct: Flag (N); expressed in transfected cells; host or cells: HEK293F
T3 sequence (Q5T601 20-910 T810A): as the sequence (Q5T601 20-910 L752A) above, with A733L, T791A counted along it
As to conditions: ADGRF1 T810^6.59bA. The method, boiled down: as §1

Assay [4] has as its target T4, ADGRF1 (Homo sapiens, UniProt Q5T601, V748A).
T4 construct: Flag (N); expressed in transfected cells; host or cells: HEK293F
The settings on record: ADGRF1 V748^5.40bA. The method, boiled down:
as §1

Assay [5] has as its target T5, ADGRF1 (Homo sapiens, UniProt Q5T601, H820A).
T5 construct: Flag (N); expressed in transfected cells; host or cells: HEK293F
As to conditions: ADGRF1 H820^7.39bA. The procedure, abridged:
as §1

The target of assay [6] is T6, ADGRF1 (Homo sapiens, UniProt Q5T601, V761A).
T6 construct: Flag (N); expressed in transfected cells; host or cells: HEK293F
T6 sequence (Q5T601 20-910 V761A): as the sequence (Q5T601 20-910 L752A) above, with A733L, V742A counted along it
The settings on record: ADGRF1 V761^5.53bA, n = 3. The procedure, abridged: as §1

[7] abbreviates: n = 3, read-out: pEC50 (mean ± s.e.m.) (converted).

From article PMC9046087, “Structural basis of tethered agonism of the adhesion GPCRs ADGRD1 and ADGRF1” (Nature, 2022) come the findings set out here.

Like-named read-outs stand apart in the source and are kept apart here. Ends that are not written are not given here.

T5 sequence (Q5T601 20-910 H820A): as the sequence (Q5T601 20-910 L752A) above, with A733L, H801A counted along it
T4 sequence (Q5T601 20-910 V748A): as the sequence (Q5T601 20-910 L752A) above, with V729A, A733L counted along it

For TSFSILMSPFVP [pF1], the “Emax (mean ± s.e.m.)” value at ADGRF1 [1] (ADGRF1 Construct 1 (structure construct), n = 4) is listed as 90 ± 13 % of WT; on ADGRF1 [1] (ADGRF1 WT, n = 30) it was 100 ± 3 % of WT; on ADGRF1 [2] (n = 3), 90 ± 15 % of WT; at ADGRF1 [3] (n = 3), 81 ± 12 % of WT; on ADGRF1 [4] (n = 3) it was 85 ± 17 % of WT; at ADGRF1 [5] (n = 3), 126 ± 12 % of WT. The “Emax (mean ± s.e.m.)” value on ADGRF1 [6] is 124 ± 22 % of WT. Moreover, the EC50 on ADGRF1 [1] (ADGRF1 Construct 1 (structure construct), n = 4, read-out: pEC50 (mean ± s.e.m.) (converted)) was 100 nM; at ADGRF1 [1] (ADGRF1 WT, n = 30, read-out: pEC50 (mean ± s.e.m.) (converted)) it was 61.7 nM; on ADGRF1 [2] (setting [7]) it was 513 nM; at ADGRF1 [3] (setting [7]) it was 562 nM; at ADGRF1 [4] (setting [7]) it was 56.2 nM; at ADGRF1 [5] (setting [7]), 275 nM. This sequence also had an EC50 on ADGRF1 [6] of 1620 nM.
